# Measurements reported in patent US6914045B2, “Glycopeptide antibiotics” (Wyeth Holdings Corporation, priority 2001, dated 2005).
# What was measured:
# [1] = tested on: Enterococcus sp.; assay: in vitro antibacterial evaluation, MIC by broth dilution; type: cell-based; conditions: broth dilution, 18 hours at 35° C.
# How it was run: (§1)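 Broth dilution per NCCLS M7-A2 in Mueller-Hinton II medium, inoculum 5×10^5 CFU/mL, antibiotic range 64-0.06 μg/mL. MIC taken as lowest concentration inhibiting growth; Gram-positive panel includes recent clinical isolates resistant to methicillin, penicillin and/or vancomycin.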
# [2] = tested on: Escherichia coli; assay: as above; type: cell-based; conditions: 18 hours at 35° C.
# How it was run: as §1
# [3] = tested on: Staphylococcus sp.; assay: as above; type: cell-based; conditions: broth dilution, 18 hours at 35° C.
# How it was run: as §1
# [4] = tested on: Streptococcus sp.; assay: as above; type: cell-based; conditions: broth dilution, 18 hours at 35° C.
# How it was run: as §1
# [5] = tested on: Enterococcus faecalis (GC 6189); assay: acute lethal infection in mice; type: in vivo; conditions: female CD-1 mice, intraperitoneal challenge, intravenous 30 min. after infection, 7 day survival
# How it was run: (§2)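 Survival at 7 days, pooled from three independent tests, yields ED50 values. Treatment is intravenous, 30 min after ip infection of female CD-1 mice, using an inoculum lethal to untreated controls within 24-48 hr.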
# [6] = tested on: Staphylococcus aureus-SMITH (GC 4543); assay: acute lethal infection in mice; type: in vivo; conditions: acute lethal infection, female CD-1 mice, intraperitoneal challenge, intravenous 30 min. after infection, 7 day survival
# How it was run: as §2
compound,measurement,setting,value
"CC(c1ccccc1)C1NC(=O)CNC(=O)C(CO)NC(=O)C(C(O)C2CNC(=N)N2C2OC(CO)C(O)C(O)C2O)NC(=O)C(C(O)C2CNC(=N)N2)NC(=O)C(Cc2ccc(OC3OC(CO)C(OC4OC5COC(C6CC=CCC6)OC5C(O)C4O)C(O)C3O)cc2)NC1=O (stereo not drawn) [Example 115, Cyclo[glycyl-β-methylphenylalanyl-O-[4-O-[4,6-O-(cyclohex-3-en-1-ylmethylene)hexopyranosyl]hexopyranosyl]tyrosyl-3-(2-iminoimidazolidin-4-yl)seryl-3-(3-hexopyranosyl-2-iminoimidazolidin-4-yl)serylseryl]]",MIC Enterococcus avium (GC 4558),[1]; Enterococcus avium (GC 4558),2 µg/mL
same,MIC Enterococcus faecalis (ATCC 29212),[1]; Enterococcus faecalis (ATCC 29212),2 µg/mL
same,MIC Enterococcus faecalis (GC 2242),[1]; Enterococcus faecalis (GC 2242),2 µg/mL
same,MIC Enterococcus faecalis (GC 2691),[1]; Enterococcus faecalis (GC 2691),2 µg/mL
same,MIC Enterococcus faecalis (GC 3059),[1]; Enterococcus faecalis (GC 3059),2 µg/mL
same,MIC Enterococcus faecalis (GC 4552),[1]; Enterococcus faecalis (GC 4552),2 µg/mL
same,MIC Enterococcus faecalis (GC 4553),[1]; Enterococcus faecalis (GC 4553),4 µg/mL
same,MIC Enterococcus faecalis (GC 4554),[1]; Enterococcus faecalis (GC 4554),2 µg/mL
same,MIC Enterococcus faecalis (GC 6189),[1]; Enterococcus faecalis (GC 6189),2 µg/mL
same,MIC Enterococcus faecium (GC 2243),[1]; Enterococcus faecium (GC 2243),2 µg/mL
same,MIC Enterococcus faecium (GC 4556),[1]; Enterococcus faecium (GC 4556),2 µg/mL
same,MIC Enterococcus faecium (GC 4557),[1]; Enterococcus faecium (GC 4557),2 µg/mL
same,MIC Enterococcus faecalis (ATCC 29212),[1]; strain ATCC 29212,2 µg/mL
same,MIC Enterococcus faecalis (GC 2242),[1]; strain GC 2242,2 µg/mL
same,MIC Enterococcus faecium (GC 2243),[1]; strain GC 2243,2 µg/mL
same,MIC Enterococcus faecalis (GC 2691),[1]; strain GC 2691,2 µg/mL
same,MIC Enterococcus faecalis (GC 3059),[1]; strain GC 3059,2 µg/mL
same,MIC Enterococcus faecalis (GC 4552),[1]; strain GC 4552,2 µg/mL
same,MIC Enterococcus faecalis (GC 4553),[1]; strain GC 4553,4 µg/mL
same,MIC Enterococcus faecalis (GC 4554),[1]; strain GC 4554,2 µg/mL
same,MIC Enterococcus faecium (GC 4556),[1]; strain GC 4556,2 µg/mL
same,MIC Enterococcus faecium (GC 4557),[1]; strain GC 4557,2 µg/mL
same,MIC Enterococcus avium (GC 4558),[1]; strain GC 4558,2 µg/mL
same,MIC Enterococcus faecalis (GC 6189),[1]; strain GC 6189,2 µg/mL
same,MIC Escherichia coli (ATCC 25922),[2]; strain ATCC 25922,32 µg/mL
same,MIC Escherichia coli (GC 4559),[2]; strain GC 4559,64 µg/mL
same,MIC Escherichia coli (GC 4560),[2]; strain GC 4560,1 µg/mL
same,MIC Coagulase Negative Staphylococcus (GC 4547),[3],1 µg/mL
same,MIC Coagulase Negative Staphylococcus (GC 4548),[3],0.5 µg/mL
same,MIC Coagulase Negative Staphylococcus (GC 4549),[3],1 µg/mL
same,MIC Coagulase Negative Staphylococcus (GC 4551),[3],1 µg/mL
same,MIC Coagulase Negative Staphylococcus (GC 6257),[3],0.5 µg/mL
same,MIC Staphylococcus aureus (ATCC 29213),[3],1 µg/mL
same,MIC Staphylococcus aureus (GC 1131),[3],1 µg/mL
same,MIC Staphylococcus aureus (GC 3051),[3],1 µg/mL
same,MIC Staphylococcus aureus (GC 3053),[3],1 µg/mL
same,MIC Staphylococcus aureus (GC 4541),[3],1 µg/mL
same,MIC Staphylococcus aureus (GC 4542),[3],0.5 µg/mL
same,MIC Staphylococcus aureus (GC 4544),[3],1 µg/mL
same,MIC Staphylococcus aureus (GC 4545),[3],0.5 µg/mL
same,MIC Staphylococcus aureus-SMITH (GC 4543),[3],1 µg/mL
same,MIC Staphylococcus haemolyticus (GC 4546),[3],0.5 µg/mL
same,MIC Staphylococcus aureus (GC 1131),"[3]; inoculum 5×10^5 CFU/mL, strain GC 1131",1 µg/mL
same,MIC Staphylococcus aureus (ATCC 29213),[3]; strain ATCC 29213,1 µg/mL
same,MIC Staphylococcus aureus (GC 3051),[3]; strain GC 3051,1 µg/mL
same,MIC Staphylococcus aureus (GC 3053),[3]; strain GC 3053,1 µg/mL
same,MIC Staphylococcus aureus (GC 4541),[3]; strain GC 4541,1 µg/mL
same,MIC Staphylococcus aureus (GC 4542),[3]; strain GC 4542,0.5 µg/mL
same,MIC Staphylococcus aureus (GC 4544),[3]; strain GC 4544,1 µg/mL
same,MIC Staphylococcus aureus (GC 4545),[3]; strain GC 4545,0.5 µg/mL
same,MIC Staphylococcus haemolyticus (GC 4546),[3]; strain GC 4546,0.5 µg/mL
same,MIC Coagulase Negative Staphylococcus (GC 4547),[3]; strain GC 4547,1 µg/mL
same,MIC Coagulase Negative Staphylococcus (GC 4548),[3]; strain GC 4548,0.5 µg/mL
same,MIC Coagulase Negative Staphylococcus (GC 4549),[3]; strain GC 4549,1 µg/mL
same,MIC Coagulase Negative Staphylococcus (GC 4551),[3]; strain GC 4551,1 µg/mL
same,MIC Coagulase Negative Staphylococcus (GC 6257),[3]; strain GC 6257,0.5 µg/mL
same,MIC Staphylococcus aureus-SMITH (GC 4543),[3]; strain SMITH GC 4543,1 µg/mL
same,MIC Streptococcus agalactiae (GC 4564),[4]; Streptococcus agalactiae (GC 4564),0.25 µg/mL
same,MIC Streptococcus pneumoniae (ATCC 6301),[4]; Streptococcus pneumoniae (ATCC 6301),<0.06 µg/mL
same,MIC Streptococcus pneumoniae (GC 1894),[4]; Streptococcus pneumoniae (GC 1894),<0.06 µg/mL
same,MIC Streptococcus pneumoniae (GC 4565),[4]; Streptococcus pneumoniae (GC 4565),0.12 µg/mL
same,MIC Streptococcus pyogenes (GC 4563),[4]; Streptococcus pyogenes (GC 4563),0.25 µg/mL
same,MIC Streptococcus pneumoniae (ATCC 6301),[4]; strain ATCC 6301,<0.06 µg/mL
same,MIC Streptococcus pneumoniae (GC 1894),[4]; strain GC 1894,<0.06 µg/mL
same,MIC Streptococcus pyogenes (GC 4563),[4]; strain GC 4563,0.25 µg/mL
same,MIC Streptococcus agalactiae (GC 4564),[4]; strain GC 4564,0.25 µg/mL
same,MIC Streptococcus pneumoniae (GC 4565),[4]; strain GC 4565,0.12 µg/mL
same,"median effective dose (ED50), Enterococcus faecalis (GC 6189)",[5],0.36 mg/kg
same,"median effective dose (ED50), Staphylococcus aureus-SMITH (GC 4543)",[6],0.23 mg/kg
